According to patent US9943516B2, “Inhibitors of IRAK4 activity” (MERCK SHARP & DOHME CORP., priority 2014, dated 2018):

The molecules below were run against IRAK4 (Homo sapiens (Human), UniProt Q9NWZ3) (assay: IRAK4 Kinase Assay (IMAP fluorescence polarization)). Conditions: 0.5 nM GST tagged IRAK4, 100 μM ATP, 30 minutes at 25° C.
Assay type: biochemical
Method: The kinase activity of IRAK4 is determined by its ability to catalyze the phosphorylation of a fluorescent polypeptide substrate. The extent of phosphorylation is measured using the IMAP technology (Molecular Devices) where the phosphorylated fluorescent substrate binds to the large M(III)-based nanoparticles which reduces the rotational speed of the substrate and thus increases its fluorescent polarization (FP).
20 μL reaction mixture contains 10 mM TriHCl, pH 7.2, 0.5 nM GST tagged IRAK4 (SignalChem), 100 nM fluorescent peptide substrate (RP7030, Molecular Devices), 100 μM ATP, 1 mM DDT, 1 mM MgCl2, and 0.01% Tween 20. The reaction is initiated by the addition of ATP. After incubation for 30 minutes at 25° C., 60 μL of Progressive IMAP Reagent (Molecular Devices) is added to stop the reaction. Change in RP7030's FP is determined by a FP reader (Analyst HT, LJL BioSystems).

Sequence of IRAK4 (Q9NWZ3 whole entry): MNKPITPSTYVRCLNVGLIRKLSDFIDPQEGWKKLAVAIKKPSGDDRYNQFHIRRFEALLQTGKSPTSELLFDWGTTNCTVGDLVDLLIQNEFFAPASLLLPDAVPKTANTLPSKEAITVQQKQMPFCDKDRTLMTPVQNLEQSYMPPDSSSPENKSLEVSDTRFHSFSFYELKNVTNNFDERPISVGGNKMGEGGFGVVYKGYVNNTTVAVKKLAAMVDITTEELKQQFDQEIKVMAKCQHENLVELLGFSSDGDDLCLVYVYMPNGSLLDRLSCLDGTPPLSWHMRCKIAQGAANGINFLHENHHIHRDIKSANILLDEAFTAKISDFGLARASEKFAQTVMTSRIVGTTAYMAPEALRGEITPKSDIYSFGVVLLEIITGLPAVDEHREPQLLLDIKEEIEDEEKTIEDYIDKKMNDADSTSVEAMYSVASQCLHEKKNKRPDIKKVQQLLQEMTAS

| SMILES | IC50 [nM] |
| --- | --- |
| Cc1c(C2CC2)ccc2ncnc(N[C@H]3CC[C@H](N4CCOCC4)CC3)c12 [Example 1-1, 6-Cyclopropyl-5-methyl-N-(trans-4-morpholinocyclohexyl)quinazolin-4-amine] | 345 |
| CN(C)C1CCC(Nc2ncnc3ccc(C4CC4)cc23)CC1 (stereo not shown) [Example 1-2, N′-(6-cyclopropylquinazolin-4-yl)-N,N-dimethylcyclohexane-1,4-diamine] | 12 |
| c1nc(N[C@H]2CC[C@H](N3CCOCC3)CC2)c2cc(C3CC3)ccc2n1 [Example 1-3, 6-cyclopropyl-N-(trans-4-morpholin-4-ylcyclohexyl)quinazolin-4-amine] | 5 |
| Fc1cc2ncnc(N[C@H]3CC[C@H](N4CCOCC4)CC3)c2cc1C1CC1 [Example 1-4, 6-cyclopropyl-7-fluoro-N-(trans-4-morpholin-4-ylcyclohexyl)quinazolin-4-amine] | 12 |
| CC1(c2ccc3ncnc(N[C@H]4CC[C@H](N5CCOCC5)CC4)c3c2)CC1 [Example 1-5, 6-(1-methylcyclopropyl)-N-(trans-4-morpholin-4-ylcyclohexyl)quinazolin-4-amine] | 52 |
| c1nc(N[C@H]2CC[C@H](N3CCOCC3)CC2)c2cc(C3CCC3)ccc2n1 [Example 1-6, 6-cyclobutyl-N-(trans-4-morpholin-4-ylcyclohexyl)quinazolin-4-amine] | 3 |
| c1nc(N[C@H]2CC[C@H](N3CCOCC3)CC2)c2cc(C3CCCC3)ccc2n1 [Example 1-7, 6-cyclopentyl-N-(trans-4-morpholin-4-ylcyclohexyl)quinazolin-4-amine] | 5 |
| c1nc(N[C@H]2CC[C@H](N3CCOCC3)CC2)c2cc(C3CCCCC3)ccc2n1 [Example 1-8, 6-cyclohexyl-N-(trans-4-morpholin-4-ylcyclohexyl)quinazolin-4-amine] | 19 |

More lines, now with the values ahead:

| IC50 [nM] | SMILES |
| --- | --- |
| 39 | OC1CCCC(c2ccc3ncnc(N[C@H]4CC[C@H](N5CCOCC5)CC4)c3c2)C1 (single isomer, unassigned) [Example 4-1, 3-(4-(((trans)-4-Morpholinocyclohexyl)amino)quinazolin-6-yl)cyclohexanol] |
| 11 | OC1CCCC(c2ccc3ncnc(N[C@H]4CC[C@H](N5CCOCC5)CC4)c3c2)C1 (single isomer, unassigned) [Example 4-3, 3-(4-(((trans)-4-Morpholinocyclohexyl)amino)quinazolin-6-yl)cyclohexanol] |
| 32 | c1nc(N[C@H]2CC[C@H](N3CCOCC3)CC2)c2cc(C3COC3)ccc2n1 [Example 2-1, N-((trans)-4-morpholinocyclohexyl)-6-(oxetan-3-yl)quinazolin-4-amine] |
| 18 | c1nc(N[C@H]2CC[C@H](N3CCOCC3)CC2)c2cc(C3CCOC3)ccc2n1 (stereo partly drawn) [Example 2-2, N-(trans-4-morpholin-4-ylcyclohexyl)-6-(tetrahydrofuran-3-yl)quinazolin-4-amine] |
| 170 | c1nc(N[C@H]2CC[C@H](N3CCOCC3)CC2)c2cc(C3CCCO3)ccc2n1 (stereo partly drawn) [Example 3-1, N-((trans)-4-morpholinocyclohexyl)-6-(tetrahydrofuran-2-yl)quinazolin-4-amine] |
| 169 | N#CC1CCC(c2ccc3ncnc(N[C@H]4CC[C@H](N5CCOCC5)CC4)c3c2)CC1 (stereo partly drawn) [Example 3-2, 4-{4-[(trans-4-morpholin-4-ylcyclohexyl)amino]quinazolin-6-yl}cyclohexanecarbonitrile] |
| 71 | FC1(F)CCC(c2ccc3ncnc(N[C@H]4CC[C@H](N5CCOCC5)CC4)c3c2)CC1 [Example 3-3, 6-(4,4-difluorocyclohexyl)-N-(trans-4-morpholin-4-ylcyclohexyl)quinazolin-4-amine] |
| 91 | c1nc(N[C@H]2CC[C@H](N3CCOCC3)CC2)c2cc(C3CCOCC3)ccc2n1 [Example 3-4, N-(trans-4-morpholin-4-ylcyclohexyl)-6-(tetrahydro-2H-pyran-4-yl)quinazolin-4-amine] |
| 13 | c1nc(N[C@H]2CC[C@H](N3CCOCC3)CC2)c2cc(C3CCCOC3)ccc2n1 (stereo partly drawn) [Example 3-5, N-(trans-4-morpholin-4-ylcyclohexyl)-6-(tetrahydro-2H-pyran-3-yl)quinazolin-4-amine] |
| 98 | O=C(O)C1CCC(c2ccc3ncnc(N[C@H]4CC[C@H](N5CCOCC5)CC4)c3c2)CC1 (stereo partly drawn) [Example 3-6, 4-{4-[(trans-4-morpholin-4-ylcyclohexyl)amino]quinazolin-6-yl}cyclohexanecarboxylic acid] |
| 55 | OC1CCCC(c2ccc3ncnc(N[C@H]4CC[C@H](N5CCOCC5)CC4)c3c2)C1 (stereo partly drawn) [Example 4-2, 3-(4-(((trans)-4-Morpholinocyclohexyl)amino)quinazolin-6-yl)cyclohexanol] |
